Where a SMILES comes first, the peptide text is derived from it. Bridges are numbered along the chain shown (N, C = ends). Roman numbers before positions name the chains, in order. Side-chain parts run from the residue outwards. [ ]: non-standard residue; d: D form. The star is where a group is joined. ξ: configuration not given here. Acetyl(2-naphthyl) = O=C(Cc1ccc2ccccc2c1)*; Fmoc = O=C(OCC1c2ccccc2-c2ccccc21)*; ξW = NC(Cc1c[nH]c2ccccc12)C(=O)O; Lauroyl = CCCCCCCCCCCC(=O)*; Nonanoyl = CCCCCCCCC(=O)*; Octanoyl = CCCCCCCC(=O)*; ξK = NCCCCC(N)C(=O)O

Results on seven compounds are retold here after ChEMBL document CHEMBL5131467, “Multivalent peptide dendrimers inhibit the fusion of viral-cellular membranes and the cellular NF-κB signaling pathway” (Eur J Med Chem, 2022).

Data set [1] is described as follows: Selectivity index, ratio of CC50 for MDCK cells to IC50 antiviral activity against Influenza A virus (A/Puerto Rico/8/1934(H1N1)) infected in MDCK cells assessed as reduction in virus induced cytopathic effect pre-treated with virus. The data set is classed as toxicity, cell-based. The note with it: dog, read-out: Selectivity Index. On the technique in general: Protection from cytopathic effect is a common read-out in antiviral testing.

Data set [2] has as its system Influenza A virus. The experiment in a line: Antiviral activity against Influenza A virus (A/Puerto Rico/8/1934(H1N1)) infected in MDCK cells assessed as reduction in virus induced cytopathic effect after infection incubated for 1 hr by MTT assay. Type of data set: functional, organism-based.
Data set [3] concerns Influenza A virus. The data set is described as follows: Antiviral activity against Influenza A virus (A/Puerto Rico/8/1934(H1N1)) infected in MDCK cells assessed as reduction in virus induced cytopathic effect pre-treated with virus followed by cell infection for 1 hr by MTT assay. The data set is classed as functional, organism-based.
The nature of data set [4]: Cytotoxicity against MDCK cells incubated for 1 hr by MTT assay. Type of data set: toxicity, cell-based, Canis lupus familiaris. The note with it: dog. (In general: Formazan colour is commonly taken as a measure of viable cells.)
Data set [5] relates to Influenza A virus. The data set is described as follows: Antiviral activity against Influenza A virus (A/Puerto Rico/8/1934(H1N1)) infected in MDCK cells assessed as reduction in virus induced cytopathic effect pretreated with compound incubated for 1 hrs by MTT assay. Type of data set: functional, organism-based.
For data set [6], the system named is Influenza A virus. The data set is described as follows: Antiviral activity against Influenza A virus (A/Puerto Rico/8/1934(H1N1)) infected in MDCK cells assessed as reduction in virus induced cytopathic effect during infection incubated for 1 hr by MTT assay. The data set is classed as functional, organism-based.
Data set [7] can be described thus: Cytotoxicity against MDCK cells by CCK-8 assay. The data set is classed as toxicity, cell-based, Canis lupus familiaris. The note with it: dog.
Data set [8] has as its system RAW264.7. The data set is described as follows: Anti-inflammatory activity against mouse RAW264.7 cells assessed as reduction in LPS induced TNF alpha level at 5 ug/ml by ELISA method. Type of data set: functional. The note with it: dose 5 µg/ml.
Data set [9] relates to RAW264.7. The experiment in a line: Anti-inflammatory activity against mouse RAW264.7 cells assessed as reduction in LPS induced TNF alpha level at 1 ug/ml by ELISA method. The data set is classed as functional. The note with it: dose 1 µg/ml. On the technique in general: In an ELISA, binding on a coated surface is turned into a signal by an enzyme label.
The subject of data set [10] is Influenza A virus. The experiment in a line: Antiviral activity against Influenza A virus A/Aichi/2/68(H3N2) infected in MDCK cells incubated for 1 hr by MTT assay. Type of data set: functional, organism-based.
The subject of data set [11] is RAW264.7. The experiment in a line: Anti-inflammatory activity against mouse RAW264.7 cells assessed as reduction in Influenza A virus (A/Puerto Rico/8/1934(H1N1)) induced TNF alpha level at 5 ug/ml by ELISA method. The data set is classed as functional. The note with it: dose 5 µg/ml.
The subject of data set [12] is RAW264.7. The data set is described as follows: Anti-inflammatory activity against mouse RAW264.7 cells assessed as reduction in Influenza A virus (A/Puerto Rico/8/1934(H1N1)) induced TNF alpha level at 1 ug/ml by ELISA method. Type of data set: functional. The note with it: dose 1 µg/ml.
Data set [13] relates to Influenza B virus. The data set is described as follows: Antiviral activity against Influenza B virus 699[…] clinical isolate infected in MDCK cells incubated for 1 hr by MTT assay. Type of data set: functional, organism-based.
For data set [14], the system named is Influenza A virus. The experiment in a line: Antiviral activity against Influenza A virus 699(H3) clinical isolate infected in MDCK cells incubated for 1 hr by MTT assay. The data set is classed as functional, organism-based.
The subject of data set [15] is Influenza A virus. The data set is described as follows: Antiviral activity against Influenza A virus A/FM/1/47 infected in MDCK cells incubated for 1 hr by MTT assay. Type of data set: functional, organism-based. The note with it: A/FM/1/47, MDCK.

The IC50 is the concentration that gives 50% inhibition. One may read the CC50 as the concentration at which the toxic effect on the cells reaches its halfway point. Read a high CC50 as better tolerance by the cells. As to `CC(C)CCC[C@@H](C)[C@H]1CC[C@H]2[C@@H]3CC=C4C[C@@H](OC(=O)CN[C@@H](CCCCN)C(=O)N[C@@H](CCCCN)C(=O)N[C@@H](Cc5c[nH]c6ccccc56)C(=O)N[C@@H](CCCCN)C(N)=O)CC[C@]4(C)[C@H]3CC[C@]12C`, the selectivity ratio in data set [1] came to 30.5. Further, the IC50 was greater than 10000 nM in data set [2], 1610 nM in [3], greater than 10000 nM in data set [5] and greater than 5000 nM in data set [6]. The compound further gave a CC50 at 1 h in [4] of 44300 nM. This compound returned a CC50 in [7] of 39100 nM.
Turning to `CCOC(=O)c1c(CSc2ccccc2)n(C)c2cc(Br)c(O)c(CN(C)C)c12.Cl`, the Activity in [8] turned out to be 400.5 pg/mL; in data set [9] it was 320.5 pg/mL; in [11], 294.9 pg/mL; in [12], 206.5 pg/mL. Also, the selectivity ratio in data set [1] is 91.4. The IC50 in data set [3] amounted to 360 nM; in [10], 1180 nM; in data set [13], 410 nM; in data set [14], 1560 nM; in [15] it was 1450 nM. Further, in [4], the CC50 at 1 h turned out to be 32900 nM.
In the case of `NCCCC[C@H](NC(=O)[C@H](Cc1c[nH]c2ccccc12)NC(=O)[C@H](CCCCN)NC(=O)[C@H](CCCCN)NC(=O)OCC1c2ccccc2-c2ccccc21)C(=O)O` (Fmoc-KKWK-OH), in data set [3], the IC50 was found to be 4020 nM. In data set [4], this compound displayed a half-maximal cytotoxic concentration (CC50) at 1 h greater than 200000 nM. Also, in data set [7], the CC50 was found to be 200000 nM.
Take `CCCCCCCCCCCC(=O)N[C@@H](CCCCN)C(=O)N[C@@H](Cc1c[nH]c2ccccc12)C(=O)N[C@@H](CCCCN)C(=O)N[C@@H](CCCCN)C(=O)NCCCC[C@H](NC(=O)[C@H](CCCCN)NC(=O)[C@H](CCCCN)NC(=O)[C@H](Cc1c[nH]c2ccccc12)NC(=O)[C@H](CCCCN)NC(=O)CCCCCCCCCCC)C(=O)NCCCC[C@H](NC(=O)[C@H](CCCCNC(=O)[C@H](CCCCN)NC(=O)[C@H](CCCCN)NC(=O)[C@H](Cc1c[nH]c2ccccc12)NC(=O)[C@H](CCCCN)NC(=O)CCCCCCCCCCC)NC(=O)[C@H](CCCCN)NC(=O)[C@H](CCCCN)NC(=O)[C@H](Cc1c[nH]c2ccccc12)NC(=O)[C@H](CCCCN)NC(=O)CCCCCCCCCCC)C(=O)NCC(=O)O` (I: Lauroyl-KWKKK([Lys-Lys-Trp-Lys-Lauroyl])KG-OH / II: Lauroyl-KWKKK([Lys-Lys-Trp-Lys-Lauroyl]); amide I:6-II:C): the selectivity ratio in data set [1] turned out to be 5.5. Further, the IC50 is greater than 5000 nM in [2], 340 nM in [3], 380 nM in data set [5] and 170 nM in [6]. Further, the CC50 at 1 h in data set [4] stood at 1880 nM.
As for `CCCCCCCCC(=O)NC(CCCCN)C(=O)NC(Cc1c[nH]c2ccccc12)C(=O)NC(CCCCN)C(=O)NC(CCCCN)C(=O)N[C@@H](CCCCNC(=O)[C@H](CCCCN)NC(=O)[C@H](CCCCN)NC(=O)[C@H](Cc1c[nH]c2ccccc12)NC(=O)[C@H](CCCCN)NC(=O)CCCCCCCC)C(=O)NCCCC[C@H](NC(=O)[C@H](CCCCNC(=O)[C@H](CCCCN)NC(=O)[C@H](CCCCN)NC(=O)[C@H](Cc1c[nH]c2ccccc12)NC(=O)[C@H](CCCCN)NC(=O)CCCCCCCC)NC(=O)[C@H](CCCCN)NC(=O)[C@H](CCCCN)NC(=O)[C@H](Cc1c[nH]c2ccccc12)NC(=O)[C@H](CCCCN)NC(=O)CCCCCCCC)C(=O)NCC(=O)O` (stereo partly drawn) (I: Nonanoyl-KWKKK([Lys-Lys-Trp-Lys-Nonanoyl])KG-OH / II: Nonanoyl-[ξK][ξW][ξK][ξK]K([Lys-Lys-Trp-Lys-Nonanoyl]); amide I:6-II:C), in data set [1], the selectivity ratio came to 4.5. Further, the IC50 in [2] is greater than 5000 nM; in [3] it was 770 nM; in data set [5], 580 nM; in [6], 1480 nM. The CC50 at 1 h in data set [4] was 3480 nM.
On to `CCCCCCCC(=O)N[C@@H](CCCCN)C(=O)N[C@@H](CCCCN)C(=O)N[C@@H](Cc1c[nH]c2ccccc12)C(=O)N[C@@H](CCCCN)C(=O)NCCCC[C@H](NC(=O)[C@H](CCCCN)NC(=O)[C@H](Cc1c[nH]c2ccccc12)NC(=O)[C@H](CCCCN)NC(=O)[C@H](CCCCN)NC(=O)CCCCCCC)C(=O)NCCCC[C@H](NC(=O)[C@H](CCCCNC(=O)[C@H](CCCCN)NC(=O)[C@H](Cc1c[nH]c2ccccc12)NC(=O)[C@H](CCCCN)NC(=O)[C@H](CCCCN)NC(=O)CCCCCCC)NC(=O)[C@H](CCCCN)NC(=O)[C@H](Cc1c[nH]c2ccccc12)NC(=O)[C@H](CCCCN)NC(=O)[C@H](CCCCN)NC(=O)CCCCCCC)C(=O)NCC(=O)O` (I: Octanoyl-KKWKK([Lys-Trp-Lys-Lys-Octanoyl])KG-OH / II: Octanoyl-KKWKK([Lys-Trp-Lys-Lys-Octanoyl]); amide I:6-II:C), for which, in data set [1], the selectivity ratio is 15. For the same compound, the IC50 in [2] is greater than 5000 nM; in data set [3], 570 nM; in [5] it was 420 nM; in [6] it was 640 nM. Further, in data set [4], the midpoint of cytotoxicity, the CC50 at 1 h, lay at 8560 nM.
For `NCCCC[C@H](NC(=O)[C@H](Cc1c[nH]c2ccccc12)NC(=O)[C@H](CCCCN)NC(=O)[C@H](CCCCN)NC(=O)Cc1ccc2ccccc2c1)C(=O)O` ({Acetyl(2-naphthyl)}-KKWK-OH), in data set [3], the 50% inhibitory concentration (IC50) stood at 4040 nM. The compound further came in with a CC50 at 1 h in data set [4] greater than 200000 nM. Besides, it took 200000 nM to reach half-maximal cytotoxicity in data set [7] (CC50).
